For the test, the target named is T1, human plasma protein factor Xa (Homo sapiens, UniProt P00742).
T1 construct: measure proteolytic activity of the enzyme (factor Xa); purchased Haematologic Technologies (Essex Junction, Vt.); host or cells: human plasma
T1 sequence (P00742 235-488 limits assumed): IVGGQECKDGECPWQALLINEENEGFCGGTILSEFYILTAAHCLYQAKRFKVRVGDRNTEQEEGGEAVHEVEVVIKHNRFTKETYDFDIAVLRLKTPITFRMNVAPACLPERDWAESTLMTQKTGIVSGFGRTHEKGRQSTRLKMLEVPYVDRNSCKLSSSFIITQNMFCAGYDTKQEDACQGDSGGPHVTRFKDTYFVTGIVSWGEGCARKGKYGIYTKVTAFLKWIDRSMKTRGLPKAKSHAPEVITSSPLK
T1 sequence (P00742 41-179 partner limits assumed): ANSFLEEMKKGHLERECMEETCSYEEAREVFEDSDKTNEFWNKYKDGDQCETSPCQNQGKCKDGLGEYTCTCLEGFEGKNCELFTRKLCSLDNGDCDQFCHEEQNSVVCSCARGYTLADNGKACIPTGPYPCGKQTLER
The test can be described thus: Factor Xa IC50 determination: cleavage of paranitroanilide substrate S-2765 in 96-well plates. The class given is biochemical. The following applies: fXa 1 nM, S-2765 100 μM, Tris buffered saline pH 7.4, room temperature. The essentials:
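Human plasma factor Xa (1 nM) preincubated 5 min at room temperature with inhibitor (0.01 nM–10 μM final) in Tris-buffered saline pH 7.4 with 5 mM CaCl2, 0.1% BSA, 5% DMSO. S-2765 at 100 μM final; hydrolysis at 405 nm over 2 min. IC50 from 4-parameter fit of initial velocities.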
Regarding `O=C(NCc1cc(-c2cccc(-c3cccc(CN4CCCC4)c3)c2)no1)c1ccc(Cl)s1` [Example 271, 5-Chloro-thiophene-2-carboxylic acid [3-(3′-pyrrolidin-1-ylmethyl-biphenyl-3-yl)-isoxazol-5-ylmethyl]-amide], the IC50 (commonly the concentration at which inhibition is half-maximal) was no less than 500 nM. The result for `CN(C)C(=N)c1ccc(C2=NOC(CNC(=O)c3ccc(Cl)s3)C2)c(N(C)C)c1` (stereo not shown) [Example 74, 5-Chloro-thiophene-2-carboxylic acid {3-[2-dimethylamino-4-(N,N-dimethyl-carbamimidoyl)-phenyl]-4,5-dihydro-isoxazol-5-ylmethyl}-amide] reads 100 to 500 nM. The figure for `COc1cc(C2=NCCN2C)ccc1C1=NOC(CNC(=O)c2ccc(Cl)s2)C1` (stereo not shown) [Example 103, 5-Chloro-thiophene-2-carboxylic acid {3-[2-methoxy-4-(1-methyl-4,5-dihydro-1H-imidazol-2-yl)-phenyl]-4,5-dihydro-isoxazol-5-ylmethyl}-amide] is no more than 100 nM; for `O=C(NCC1CC(c2ccc(-c3ccccn3)cc2)=NO1)c1ccc(Cl)s1` (stereo not shown) [Example 219, 5-Chloro-thiophene-2-carboxylic acid [3-(4-pyridin-2-yl-phenyl)-4,5-dihydro-isoxazol-5-ylmethyl]-amide] it is no more than 100 nM; for `CN(C)Cc1ccc(-c2cccc(-c3cc(CNC(=O)c4ccc(Cl)s4)on3)c2)cc1` [Example 272, 5-Chloro-thiophene-2-carboxylic acid [3-(4′-dimethylaminomethyl-biphenyl-3-yl)-isoxazol-5-ylmethyl]-amide] it is no less than 500 nM. The figure for `N=C(c1ccc(-c2nc(CNC(=O)c3ccc(Cl)s3)cs2)cc1)N1CCCCC1` [Example 353, 5-Chloro-N-((2-(4-(imino(piperidin-1-yl)methyl)phenyl)thiazol-4-yl)methyl)thiophene-2-carboxamide] is 100 to 500 nM; for `CN(Cc1ccco1)C(=N)c1ccc(C2=NOC(C)(CNC(=O)c3ccc(Cl)s3)C2)cc1` (stereo not shown) [Example 67, 5-Chloro-thiophene-2-carboxylic acid {3-[4-(N-furan-2-ylmethyl-N-methyl-carbamimidoyl)-phenyl]-5-methyl-4,5-dihydro-isoxazol-5-ylmethyl}-amide] it is no more than 100 nM; for `O=C(NCC1CC(c2ccc(N3CCOCC3=O)cc2)=NO1)c1ccc(Cl)s1` (stereo not shown) [Example 243, 5-Chloro-thiophene-2-carboxylic acid {3-[4-(3-oxo-morpholin-4-yl)-phenyl]-4,5-dihydro-isoxazol-5-ylmethyl}-amide] it is no more than 100 nM. Consider `O=C(NCc1cc(-c2ccc(N3CCOCC3)cc2)no1)c1ccc(Cl)s1` [Example 257, 5-Chloro-thiophene-2-carboxylic acid [3-(4-morpholin-4-yl-phenyl)-isoxazol-5-ylmethyl]-amide], for which the concentration for half-maximal inhibition (IC50) is no less than 500 nM. `CC(C)Oc1cc(C(=N)N2CCCC2)ccc1C1=NOC(CNC(=O)c2ccc(Cl)s2)C1` (stereo not shown) [Example 111, 5-Chloro-thiophene-2-carboxylic acid {3-[4-(imino-pyrrolidin-1-yl-methyl)-2-isopropoxy-phenyl]-4,5-dihydro-isoxazol-5-ylmethyl}-amide] returned an IC50 of no more than 100 nM.

For the compound `CN(C)C(=N)c1ccc(-c2cc(CNC(=O)c3ccc(Cl)s3)ccc2F)cc1` [Example 377, N-((3-(4-(N,N-Dimethylcarbamimidoyl)phenyl)-4-fluorophenyl)methyl)-5-chlorothiophene-2-carboxamide], the IC50 was no more than 100 nM.

With `O=C(NCC1CC(c2ccc(C(=O)N3CCCC3)cc2)=NO1)c1ccc(Cl)s1` (stereo not shown) [Example 164, 5-Chloro-thiophene-2-carboxylic acid {3-[4-(pyrrolidine-1-carbonyl)-phenyl]-4,5-dihydro-isoxazol-5-ylmethyl}-amide], the 50% inhibitory concentration (IC50) is no more than 100 nM. The result for `N=C(c1ccc(C2=NOC(CNC(=O)c3ccc(Cl)s3)C2)c(N2CCCCCC2)c1)N1CCCCC1` (stereo not shown) [Example 93, 5-Chloro-thiophene-2-carboxylic acid {3-[2-azepan-1-yl-4-(imino-piperidin-1-yl-methyl)-phenyl]-4,5-dihydro-isoxazol-5-ylmethyl}-amide] reads no more than 100 nM. The figure for `O=C(NCc1cn(-c2ccc(N3CCOCC3=O)cc2)nn1)c1ccc(Cl)s1` [Example 301, 5-Chloro-N-((1-(4-(3-oxomorpholino)phenyl)-1H-1,2,3-triazol-4-yl)methyl)thiophene-2-carboxamide] is no more than 100 nM. The result for `CCOC(=O)C1CCN(C(=N)c2ccc(-c3cc(CNC(=O)c4ccc(Cl)s4)on3)cc2)CC1` [Example 25, 1-{[4-(5-{[(5-Chloro-thiophene-2-carbonyl)-amino]-methyl}-isoxazol-3-yl)-phenyl]-imino-methyl}-piperidine-4-carboxylic acid ethyl ester] reads no more than 100 nM. Take `Cc1ccc(-c2cc(CNC(=O)c3ccc(Cl)s3)on2)cc1` [Example 149, 5-Chloro-thiophene-2-carboxylic acid (3-p-tolyl-isoxazol-5-ylmethyl)-amide]: the half-maximal inhibitory concentration (IC50) is no less than 500 nM. Turning to `O=C(NCC1CC(c2ccc(Nc3c(Cl)cncc3Cl)cc2)=NO1)c1ccc(Cl)s1` (stereo not shown) [Example 402, 5-Chloro-N-((3-(4-(3,5-dichloropyridin-4-ylamino)phenyl)-4,5-dihydroisoxazol-5-yl)methyl)thiophene-2-carboxamide], the half-inhibitory concentration (IC50) is no less than 500 nM. As for `N=C(c1ccc(-c2cc(CNC(=O)c3ccc(Cl)s3)ccc2F)cc1)N1CCCC1` [Example 379, 5-Chloro-N-((3-(4-(imino(pyrrolidin-1-yl)methyl)phenyl)-4-fluorophenyl)methyl)thiophene-2-carboxamide], the IC50 was no more than 100 nM. The result for `CN1CCN(c2ccc(C3=NOC(CNC(=O)c4ccc(Cl)s4)C3)cc2)C1=O` (stereo not shown) [Example 245, 5-Chloro-thiophene-2-carboxylic acid {3-[4-(3-methyl-2-oxo-imidazolidin-1-yl)-phenyl]-4,5-dihydro-isoxazol-5-ylmethyl}-amide] reads no more than 100 nM. The compound `COc1ccc(Oc2cc(C(=N)N3CCCC3)ccc2-c2cc(CNC(=O)c3ccc(Cl)s3)on2)cc1` [Example 135, 5-Chloro-thiophene-2-carboxylic acid {3-[4-(imino-pyrrolidin-1-yl-methyl)-2-(4-methoxy-phenoxy)-phenyl]-isoxazol-5-ylmethyl}-amide] yielded an IC50 of no more than 100 nM. On to `CN(Cc1cc(-c2ccc(C(=N)N3CCCCC3)cc2)no1)C(=O)c1ccc(Cl)s1` [Example 38, 5-Chloro-thiophene-2-carboxylic acid {3-[4-(imino-piperidin-1-yl-methyl)-phenyl]-isoxazol-5-ylmethyl}-methyl-amide], for which the IC50 was no less than 500 nM. The result for `COc1cccn(-c2ccc(C3=NOC(CNC(=O)c4ccc(Cl)s4)C3)cc2)c1=O` (stereo not shown) [Example 282, 5-Chloro-N-((3-(4-(3-methoxy-2-oxopyridin-1(2H)-yl)phenyl)-4,5-dihydroisoxazol-5-yl)methyl)thiophene-2-carboxamide] reads no more than 100 nM. The figure for `COCCN(C)C(=N)c1ccc(-c2cc(CNC(=O)c3ccc(Cl)s3)on2)cc1` [Example 32, 5-Chloro-thiophene-2-carboxylic acid (3-{4-[N-(2-methoxy-ethyl)-N-methyl-carbamimidoyl]-phenyl}-isoxazol-5-ylmethyl)-amide] is no more than 100 nM; for `Cc1cccn(-c2ccc(-n3cc(CNC(=O)c4ccc(Cl)s4)nn3)cc2)c1=O` [Example 293, 5-Chloro-N-((1-(4-(3-methyl-2-oxopyridin-1(2H)-yl)phenyl)-1H-1,2,3-triazol-4-yl)methyl)thiophene-2-carboxamide] it is no more than 100 nM. The figure for `CN(C)CCN(C)Cc1ccccc1-c1ccc(C2=NOC(CNC(=O)c3ccc(Cl)s3)C2)cc1` (stereo not shown) [Example 200, 5-Chloro-thiophene-2-carboxylic acid [3-(2′-{[(2-dimethylamino-ethyl)-methyl-amino]-methyl}-biphenyl-4-yl)-4,5-dihydro-isoxazol-5-ylmethyl]-amide] is no more than 100 nM; for `COC(=O)c1ccc(Nc2ccc(C3=NOC(CNC(=O)c4ccc(Cl)s4)C3)cc2)cc1` (stereo not shown) [Example 262, 4-[4-(5-{[(5-Chloro-thiophene-2-carbonyl)-amino]-methyl}-4,5-dihydro-isoxazol-3-yl)-phenylamino]-benzoic acid methyl ester] it is no less than 500 nM. For the compound `CN1CCN=C1c1ccc(-c2cc(CNC(=O)c3ccc(Cl)s3)on2)c(F)c1` [Example 70, 5-Chloro-thiophene-2-carboxylic acid {3-[2-fluoro-4-(1-methyl-4,5-dihydro-1H-imidazol-2-yl)-phenyl]-isoxazol-5-ylmethyl}-amide], the half-maximal inhibitory concentration (IC50) was no more than 100 nM. The figure for `CCN(CC)CCN(C)C(=O)c1ccc(C2=NOC(CNC(=O)c3ccc(Cl)s3)C2)cc1` (stereo not shown) [Example 166, 5-Chloro-thiophene-2-carboxylic acid (3-{4-[(2-diethylamino-ethyl)-methyl-carbamoyl]-phenyl}-4,5-dihydro-isoxazol-5-ylmethyl)-amide] is no more than 100 nM; for `CN1CCN=C1c1ccc(C2=NOC(CNC(=O)c3ccc(Cl)s3)C2)c(N2CCCC2)c1` (stereo not shown) [Example 79, 5-Chloro-thiophene-2-carboxylic acid {3-[4-(1-methyl-4,5-dihydro-1H-imidazol-2-yl)-2-pyrrolidin-1-yl-phenyl]-4,5-dihydro-isoxazol-5-ylmethyl}-amide] it is 100 to 500 nM; for `CCOc1cc(C(=N)N2CCCCC2)ccc1-c1cc(CNC(=O)c2ccc(Cl)s2)on1` [Example 125, 5-Chloro-thiophene-2-carboxylic acid {3-[2-ethoxy-4-(imino-piperidin-1-yl-methyl)-phenyl]-isoxazol-5-ylmethyl}-amide] it is no more than 100 nM. The result for `Cc1cccn(-c2ccc(C3=NOC(CNC(=O)c4ccc(Cl)s4)C3)cc2)c1=O` (stereo not shown) [Example 281, 5-Chloro-N-((3-(4-(3-methyl-2-oxopyridin-1(2H)-yl)phenyl)-4,5-dihydroisoxazol-5-yl)methyl)thiophene-2-carboxamide] reads no more than 100 nM.

For the origin of these results see US8377974B2 (Millennium Pharmaceuticals, Inc., priority 2004, dated 2013).
